Data as given in patent publication US11952362B2, “Compositions and methods for treating epigenetic disease” (The Regents of the University of California, priority 2018, dated 2024).

Assays:
Format in all cases: cell-based
[1] = tested on: UMUC9 bladder cancer cells; assay: Cell viability assay (CellTiter Glo), UMUC9; settings: for IC50: UM-UC-9
Experimental: (§1) Pancreatic cancer cell lines (MIA PaCa-2 and CAPAN-2) were purchased from ATCC. MIA PaCa-2 were grown in DMEM and CAPAN-2 in McCoy's 5A (Gibco). Colon cancer cell lines (SW480 and HT-29) were purchased from ATCC. SW480 were grown in Leibovitz's L-15 (ATCC) and HT-29 in McCoy's 5A (Gibco). Lung cancer cell lines (NCI 460 and NCI 1975) were purchased from ATCC and grown in RPMI 1640 (Gibco). PC-3 prostate cancer cell line was purchased from ATCC and grown in F-12K (ATCC). Bladder cancer cell line 5637 was purchased from ATCC and RT-112 was purchased from Sigma-Aldrich and was grown in RPMI 1640 (Gibco). Bladder cancer cell lines, UMUC-9, UMUC-15 and UMUC-7 were purchased from MD Anderson and were grown in EMEM (ATCC). Bladder cancer cell line J82 was purchased from ATCC and was grown in EMEM (ATCC). SW1710 and EJ28 bladder cancer cell lines were purchased from DSMZ and were grown in DMEM (ATCC) and RPMI-1640 (Gibco), respectively. Bladder cancer cell line T24 was purchased from ATCC and grown in McCoy's 5A (Gibco). Bladder cancer cell line BC-3C was purchased from DSMZ and was grown in McCoy's 5A (Gibco). All media were supplemented with 10% FBS (Gemini Bioproducts) and 1% Antibiotic-Antimycotic (Gibco). In the case of MIA PaCa-2, medium was also supplemented with 2.5% horse serum (Gibco). NCM356 colon epithelial cell lines were growth in M3:10 (INCELL, San Antonio, Tex.). A CMV-driven-HDAC9 vector was used to overexpress HDAC9 levels in NCM356 cells. IL1B and TNFA mRNA levels were measured by qPCR analysis as described previously (Fang K et al. Am J Pathol, 188(3):586-99, 2018).
(§2) 1.8×10^3 cells/well were plated in quadruplicates in 96-well plate and treated with exogenously added MJK analogues 6 hours after plating. For the experiments performed to calculate the IC50s of HDAC9 analogues, a secondary treatment of exogenously added MJK analogues was performed 2 days later. Cell growth was assessed 1, 3, 5 or 7 days after plating using the CellTiter Glo Luminescence Cell Viability Assay (Promega) according to manufacturer's protocol. For the experiments where the effect of combinatorial treatment of MJK-004 analogues with chemotherapy was assessed, treatment of cells with gemcitabine (10 nM) or 5-fluouracil (2000 nM) was performed one day after MJK-004 treatment and the cells were further treated with exogenously added MJK analogues 2 days later. Cell growth was assessed 3, 4, 5 or 6 days after plating using the CellTiter Glo Luminescence Cell Viability Assay (Promega) according to manufacturer's protocol. Data are expressed as mean […] (arbitrary units)±S.D.
(§3) Cell Viability Assays were employed to determine the concentration of MJK analogues where the response is reduced by half. For each treatment of cancer cells, 1, 2, 5, 10 and 20 μM of MJK analogues were applied. GraphPad Prism 7 software was used to fit dose response curves. Relative Luciferase Activity Units were plotted against the log values of the doses used and the nonlinear regression model was used for data analysis.

[2] = tested on: 5637 bladder cancer cell line; assay: Cell viability assay (CellTiter Glo), 5637; settings: for IC50: 5637 cell growth
Experimental: as §1, with “All media were supplemented with 10% FBS (Gemini Bioproducts) and 1% Antibiotic-Antimycotic (Gibco). In the case of MIA PaCa-2, medium was also supplemented with 2.5% horse serum (Gibco). NCM356 colon epithelial cell lines were growth in M3:10 (INCELL, San Antonio, Tex.). A CMV-driven-HDAC9 vector was used to overexpress HDAC9 levels in NCM356 cells.” left out
as §2, with “For the experiments performed to calculate the IC50s of HDAC9 analogues, a secondary treatment of exogenously added MJK analogues was performed 2 days later.” left out, “units)±S.D. […]” for “units)±S.D.”

[3] = tested on: RT-112 bladder cancer cells; assay: Cell viability assay (CellTiter Glo), RT-112
Experimental: as §1, §2, §3
MJK-001 effects on a cancer cell line panel: The effects of MJK-001 (20 uM) on cancer cell growth was evaluated in 9 cancer cell lines, consisting of bladder, colon, lung, prostate and pancreatic cancer cell lines. Cell growth was measured on day 5. Bladder cancer cell lines (RT-112, 5637) were more responsive to MJK-001 treatment, followed by the colon and pancreatic cancer cell lines shown in Table 3.

bladder cancer cells = assay: Bladder cancer cell growth, overall finding; settings: in words
Experimental: as §2, §3
MJK-004 efficacy on bladder cancer cell growth and colony-formation ability: Based on the above findings, the MJK compounds were examined to determine if they had substantially better efficacy than MJK-001 to suppress bladder cancer cell growth by calculating the IC50 values.
The synthesized series of MJK chemical compounds have increased specificity for HDAC9 or HDAC4 isoforms. […] On the other hand, MJK-004 is highly efficient in blocking bladder cancer cell growth through regulation of HDAC4 isoform. MJK-006 and MJK-008 compounds have the potential to be developed as therapeutics for Crohn's Disease and other auto-immune diseases. […]

[4] = Homo sapiens, RT-112 cell growth

IC50 ([1]; UMUC9 cell growth)	IC50 [3, 4]	IC50 [2]	IC50 (uM) values ([1]; UMUC9 cell growth)	IC50 (uM) values ([3]; RT-112 cell growth)	SMILES	inhibition at 20 µM ([2]; 120 h, 5637, 20 uM, day 5, read-out: % growth inhibition)	inhibition at 20 µM ([3]; Homo sapiens, RT-112, 120 h, RT112, 20 uM, day 5, read-out: % growth inhibition)	effect on bladder cancer cell growth (bladder cancer cells)	cell growth, monotherapy ([1]; UMUC9, days 4 & 5)	cell growth, combination with gemcitabine ([1]; UMUC9, gemcitabine 10 nM, days 4 & 5)	cell growth, monotherapy ([3]; RT-112, days 4 & 5)	cell growth, combination with gemcitabine ([3]; RT-112, gemcitabine 10 nM, days 4 & 5)
7.1 µM	9.15 µM	–	–	–	Cn1c(/C=C/C(=O)NO)ccc1/C=C/C(=O)c1cccc(F)c1 [MJK001, (E)-3-(5-((E)-3-(3-Fluorophenyl)-3-oxoprop-1-en-1-yl)-1-methyl-1H-pyrrol-2-yl)-N-hydro-xyacrylamide]	42.1%	51%	–	–	–	–	–
3.97 µM	2.37 µM	7.58 µM	–	–	Cn1c(/C=C/C(=O)NO)ccc1/C=C/C(=O)c1cccs1 [MJK004, (E)-N-hydroxy-3-(1-methyl-5-((E)-3-oxo-3-(thiophen-2-yl)prop-1-en-1-yl)-1H-pyrrol-2-yl)acrylamide]	–	–	highest efficacy	suppressed bladder cancer growth in both cell lines as a monotherapy	increased gemcitabine's efficacy	suppressed bladder cancer growth in both cell lines as a monotherapy	increased gemcitabine's efficacy
19.8 µM	38.3 µM	1740 µM	–	–	Cn1c(/C=C/C(=O)NO)ccc1/C=C/C(=O)c1cccnc1 [MJK006, (E)-N-hydroxy-3-(1-methyl-5-((E)-3-oxo-3-(pyridin-3-yl)prop-1-en-1-yl)-1H-pyrrol-2-yl)acrylamide]	–	–	did not have any effect	–	–	–	–
–	–	–	ns	ns	Cl.Cn1c(/C=C/C(=O)NO)ccc1/C=C/C(=O)c1cccnc1 [MJK008, (E)-N-Hydroxy-3-(1-methyl-5-((E)-3-oxo-3-(pyridin-3-yl)prop-1-en-1-yl)-1H-pyrrol-2-yl)ac-rylamide hydrochloride]	–	–	did not have any effect	–	–	–	–
